In ChEMBL document CHEMBL1149126, “3-phenyl-6-(2-pyridyl)methyloxy-1,2,4-triazolo[3,4-a]phthalazines and analogues: high-affinity gamma-aminobutyric acid-A benzodiazepine receptor ligands with alpha 2, alpha 3, and alpha 5-subtype binding selectivity over alpha 1” (J Med Chem, 2004):
pKi: −log10 of the molar value.

What was measured:
[1] = molecular target: T1, GABA-A receptor; alpha-3/beta-3/gamma-2 (Homo sapiens, UniProt P18507+P28472+P34903); assay: Binding affinity for human GABA-A receptor alpha-3-beta-3-gamma-2 subunits in L(tk-) cells; assay type: cell-based
T1 sequence (P18507 whole entry): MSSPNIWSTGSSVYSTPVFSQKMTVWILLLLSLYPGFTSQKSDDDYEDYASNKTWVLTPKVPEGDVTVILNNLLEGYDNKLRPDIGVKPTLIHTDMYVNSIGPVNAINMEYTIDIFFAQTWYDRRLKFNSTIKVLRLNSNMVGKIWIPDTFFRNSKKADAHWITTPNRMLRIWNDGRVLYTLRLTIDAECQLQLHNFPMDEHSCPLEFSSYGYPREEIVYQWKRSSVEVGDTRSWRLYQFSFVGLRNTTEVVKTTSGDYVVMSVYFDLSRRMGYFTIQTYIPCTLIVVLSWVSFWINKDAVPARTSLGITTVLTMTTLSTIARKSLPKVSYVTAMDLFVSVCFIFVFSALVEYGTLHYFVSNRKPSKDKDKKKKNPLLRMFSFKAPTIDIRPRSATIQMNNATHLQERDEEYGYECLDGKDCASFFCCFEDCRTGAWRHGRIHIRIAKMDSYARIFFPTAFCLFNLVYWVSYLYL
T1 sequence (P28472 whole entry): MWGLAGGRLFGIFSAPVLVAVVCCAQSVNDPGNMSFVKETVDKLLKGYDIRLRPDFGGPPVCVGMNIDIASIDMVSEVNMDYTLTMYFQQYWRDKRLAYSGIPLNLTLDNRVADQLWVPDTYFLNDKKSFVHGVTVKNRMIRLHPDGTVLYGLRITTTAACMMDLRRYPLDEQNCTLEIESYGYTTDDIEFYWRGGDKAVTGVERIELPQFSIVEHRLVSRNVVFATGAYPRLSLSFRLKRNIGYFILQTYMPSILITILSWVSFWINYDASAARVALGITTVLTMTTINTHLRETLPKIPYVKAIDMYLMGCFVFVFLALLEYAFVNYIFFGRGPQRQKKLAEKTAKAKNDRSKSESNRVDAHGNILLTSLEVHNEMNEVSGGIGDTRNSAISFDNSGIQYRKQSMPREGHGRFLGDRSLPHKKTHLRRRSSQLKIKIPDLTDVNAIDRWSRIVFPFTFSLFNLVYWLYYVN
T1 sequence (P34903 whole entry): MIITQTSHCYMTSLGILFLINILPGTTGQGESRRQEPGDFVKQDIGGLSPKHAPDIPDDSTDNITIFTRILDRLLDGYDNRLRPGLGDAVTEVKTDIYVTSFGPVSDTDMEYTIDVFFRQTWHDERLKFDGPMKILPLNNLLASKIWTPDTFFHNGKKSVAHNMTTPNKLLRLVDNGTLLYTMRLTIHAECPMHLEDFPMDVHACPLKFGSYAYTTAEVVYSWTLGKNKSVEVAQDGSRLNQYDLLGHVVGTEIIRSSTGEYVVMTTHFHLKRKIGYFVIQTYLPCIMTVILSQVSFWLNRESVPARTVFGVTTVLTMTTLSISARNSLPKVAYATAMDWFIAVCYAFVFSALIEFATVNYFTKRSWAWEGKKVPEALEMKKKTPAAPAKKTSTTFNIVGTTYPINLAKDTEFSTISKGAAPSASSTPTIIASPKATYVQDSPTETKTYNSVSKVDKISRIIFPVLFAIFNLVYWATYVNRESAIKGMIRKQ

[2] = molecular target: T2, GABA-A receptor; alpha-5/beta-3/gamma-2 (Homo sapiens, UniProt P18507+P28472+P31644); assay: Binding affinity for human GABA-A receptor alpha-5-beta-3-gamma-2 subunits in L(tk-) cells; assay type: cell-based
T2 sequence (P18507 whole entry): T1 sequence (P18507 whole entry)
T2 sequence (P28472 whole entry): T1 sequence (P28472 whole entry)
T2 sequence (P31644 whole entry): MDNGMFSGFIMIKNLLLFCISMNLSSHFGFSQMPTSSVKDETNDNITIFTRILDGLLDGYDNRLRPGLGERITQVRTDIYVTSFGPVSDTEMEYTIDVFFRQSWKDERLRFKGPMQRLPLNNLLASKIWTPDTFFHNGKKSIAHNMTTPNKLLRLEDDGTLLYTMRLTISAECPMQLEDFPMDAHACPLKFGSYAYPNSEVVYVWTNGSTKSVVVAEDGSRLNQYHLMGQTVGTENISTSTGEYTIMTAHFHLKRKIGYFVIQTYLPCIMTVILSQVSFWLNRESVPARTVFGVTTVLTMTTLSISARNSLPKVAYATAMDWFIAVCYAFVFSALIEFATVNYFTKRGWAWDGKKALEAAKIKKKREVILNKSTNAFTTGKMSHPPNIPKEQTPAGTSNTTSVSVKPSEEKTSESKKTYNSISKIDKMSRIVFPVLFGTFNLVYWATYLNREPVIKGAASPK

[3] = molecular target: T3, GABA-A receptor; alpha-2/beta-3/gamma-2 (Homo sapiens, UniProt P18507+P28472+P47869); assay: Binding affinity for human GABA-A receptor alpha-2-beta-3-gamma-2 subunits in L(tk-) cells; assay type: cell-based
T3 sequence (P18507 whole entry): T1 sequence (P18507 whole entry)
T3 sequence (P28472 whole entry): T1 sequence (P28472 whole entry)
T3 sequence (P47869 whole entry): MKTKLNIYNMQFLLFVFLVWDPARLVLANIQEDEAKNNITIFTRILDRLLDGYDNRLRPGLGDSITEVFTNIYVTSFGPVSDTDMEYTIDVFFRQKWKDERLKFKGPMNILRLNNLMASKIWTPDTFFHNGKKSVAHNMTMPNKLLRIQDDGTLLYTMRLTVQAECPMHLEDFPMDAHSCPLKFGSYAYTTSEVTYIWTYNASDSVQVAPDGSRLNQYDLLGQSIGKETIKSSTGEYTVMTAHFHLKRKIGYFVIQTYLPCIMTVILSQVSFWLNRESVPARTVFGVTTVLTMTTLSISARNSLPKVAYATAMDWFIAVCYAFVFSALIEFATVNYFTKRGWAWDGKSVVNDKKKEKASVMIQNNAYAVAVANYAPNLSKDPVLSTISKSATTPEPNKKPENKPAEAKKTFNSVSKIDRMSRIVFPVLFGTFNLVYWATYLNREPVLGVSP

[4] = molecular target: T4, GABA-A receptor; alpha-1/beta-3/gamma-2 (Homo sapiens, UniProt P14867+P18507+P28472); assay: Binding affinity for human GABA-A receptor alpha-1-beta-3-gamma-2 subunits in L(tk-) cells
T4 sequence (P14867 whole entry): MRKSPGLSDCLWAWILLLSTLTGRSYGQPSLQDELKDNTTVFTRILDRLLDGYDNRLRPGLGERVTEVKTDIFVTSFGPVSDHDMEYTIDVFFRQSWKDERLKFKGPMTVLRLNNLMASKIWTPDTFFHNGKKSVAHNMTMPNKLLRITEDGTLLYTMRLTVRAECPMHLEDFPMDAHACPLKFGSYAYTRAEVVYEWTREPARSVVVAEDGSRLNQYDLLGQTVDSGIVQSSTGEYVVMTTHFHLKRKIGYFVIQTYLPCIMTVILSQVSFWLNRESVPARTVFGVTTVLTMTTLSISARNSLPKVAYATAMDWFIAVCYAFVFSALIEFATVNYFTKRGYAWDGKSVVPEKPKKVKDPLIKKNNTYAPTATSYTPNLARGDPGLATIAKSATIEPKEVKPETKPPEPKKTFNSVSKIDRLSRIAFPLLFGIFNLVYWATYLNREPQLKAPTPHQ
T4 sequence (P18507 whole entry): T1 sequence (P18507 whole entry)
T4 sequence (P28472 whole entry): T1 sequence (P28472 whole entry)

c1ccc(-c2nnc3c4ccccc4c(OCc4ccsc4)nn23)cc1
pKi [1]: 6.62
pKi [2]: 6.60
pKi [3]: 6.29
pKi [4]: 6.15

c1ccc(-c2nnc3c4ccccc4c(OCC4CCNCC4)nn23)cc1
pKi [1]: 7.43
pKi [2]: 7.52
pKi [3]: 7.40
pKi [4]: 7.49

COc1ccc(-c2nnc3c4ccccc4c(OCc4ccccc4)nn23)cc1
pKi [1]: 6.77
pKi [2]: 7.14
pKi [3]: 6.07

Cc1ccc(-c2nnc3c4ccccc4c(OCc4ccccn4)nn23)cc1
pKi [1]: 7.96
pKi [2]: 8.40
pKi [3]: 7.80

c1ccc(CNc2nn3c(-c4ccccc4)nnc3c3ccccc23)cc1
pKi [1]: < 6.00
pKi [2]: < 6.00
pKi [3]: < 6.00
pKi [4]: < 6.00

c1ccc(-c2nnc3c4ccccc4c(OCc4cccs4)nn23)cc1
pKi [1]: 6.52
pKi [2]: 6.77
pKi [3]: 6.25
pKi [4]: 6.62

CN(C)Cc1nnc2c3ccccc3c(OCc3ccccn3)nn12
pKi [1]: 6.08
pKi [2]: 6.80
pKi [3]: 6.21
pKi [4]: 6.85

c1ccc(Cc2nnc3c4ccccc4c(OCc4ccccn4)nn23)cc1
pKi [1]: 6.72
pKi [2]: 7.74
pKi [3]: 6.47
pKi [4]: 6.59

COCCN(CCOC)c1nn2c(-c3ccc(OC)cc3)nnc2c2ccccc12
pKi [1]: 7.39
pKi [2]: 7.10
pKi [3]: 7.39

CCc1nnc2c3ccccc3c(OCc3ccccn3)nn12
pKi [1]: 7.28
pKi [2]: 7.80
pKi [3]: 6.89
pKi [4]: 6.60

Cc1ccc(COc2nn3c(-c4ccccc4)nnc3c3ccccc23)nc1
pKi [1]: 8.37
pKi [2]: 8.96
pKi [3]: 8.44
pKi [4]: 8.32

c1ccc(-c2nnc3c4ccccc4c(OCc4ccncn4)nn23)cc1
pKi [1]: 8.89
pKi [2]: 9.30
pKi [3]: 8.54
pKi [4]: 8.64

c1ccc(-c2nnc3c4ccccc4c(OCc4ccoc4)nn23)cc1
pKi [1]: 7.68
pKi [2]: 7.89
pKi [3]: 7.42
pKi [4]: 7.59

c1ccc(CSc2nn3c(-c4ccccc4)nnc3c3ccccc23)cc1
pKi [1]: < 6.00
pKi [2]: < 6.00
pKi [3]: < 6.00
pKi [4]: < 6.00

c1ccc(-c2nnc3c4ccccc4c(OCC4CCCCC4)nn23)cc1
pKi [1]: < 6.00
pKi [2]: < 6.00
pKi [3]: < 6.00
pKi [4]: < 6.00

COc1nn2c(-c3ccccc3)nnc2c2ccccc12
pKi [1]: 6.92
pKi [2]: 7.41
pKi [3]: 6.80
pKi [4]: 6.85

c1ccc(-c2nnc3c4ccccc4c(OCc4cccnn4)nn23)cc1
pKi [1]: 9.43
pKi [2]: 9.82
pKi [4]: 9.09

CCCc1nnc2c3ccccc3c(OCc3ccccn3)nn12
pKi [1]: 7.28
pKi [2]: 7.72
pKi [3]: 6.92
pKi [4]: 6.80

c1ccc(COc2nn3c(-c4ccccc4)nnc3c3ccccc23)cc1
pKi [1]: 7.39
pKi [2]: 7.42
pKi [3]: 7.80
pKi [4]: 6.55

Fc1ccc(-c2nnc3c4ccccc4c(OCc4ccccn4)nn23)cc1
pKi [1]: 8.62
pKi [2]: 8.77
pKi [3]: 8.43
pKi [4]: 8.41

CCOC(=O)c1ncn2c1[C@@H]1CCCN1C(=O)c1cc(OC)ccc1-2
pKi [1]: 7.96
pKi [2]: 9.40
pKi [3]: 7.66
pKi [4]: 7.36

N#Cc1cccc(COc2nn3c(-c4ccccc4)nnc3c3ccccc23)c1
pKi [1]: 6.77
pKi [2]: 6.89
pKi [3]: 6.40
pKi [4]: 6.14

c1ccc(-c2nnc3c4ccccc4c(OCc4ccco4)nn23)cc1
pKi [1]: 6.74
pKi [2]: 7.13
pKi [3]: 6.57
pKi [4]: 6.60

Cc1ccc(-c2nc3ccc(C)cn3c2CC(=O)N(C)C)cc1 [ZOLPIDEM]
pKi [2]: < 4.82

Clc1ccccc1COc1nn2c(-c3ccccc3)nnc2c2ccccc12
pKi [1]: 6.59
pKi [2]: 6.25
pKi [3]: 6.24
pKi [4]: < 6.00

c1ccc(-c2nnc3c4ccccc4c(OCCc4ccccn4)nn23)cc1
pKi [1]: 7.77
pKi [2]: 7.82
pKi [3]: 7.60
pKi [4]: 7.74

c1ccc(CCOc2nn3c(-c4ccccc4)nnc3c3ccccc23)cc1
pKi [1]: 6.14
pKi [2]: < 6.00
pKi [3]: < 6.00
pKi [4]: 6.42

Clc1ccc(COc2nn3c(-c4ccccc4)nnc3c3ccccc23)cc1
pKi [1]: 6.60
pKi [2]: 6.77
pKi [3]: 6.42
pKi [4]: 6.32

c1ccc(CCCOc2nn3c(-c4ccccc4)nnc3c3ccccc23)cc1
pKi [1]: 6.38
pKi [2]: < 6.00
pKi [3]: < 6.00
pKi [4]: 6.52

c1ccc(-c2nnc3c4ccccc4c(OCc4cnccn4)nn23)cc1
pKi [1]: 9.15
pKi [2]: 9.44
pKi [3]: 8.80
pKi [4]: 8.70

Cc1ccc2c(OCc3ccccn3)nn3c(-c4ccccc4)nnc3c2c1
pKi [1]: < 6.00
pKi [2]: < 6.00
pKi [3]: < 6.00
pKi [4]: < 6.00

c1ccc(-c2nnc3c4ccccc4c(OCc4cccnc4)nn23)cc1
pKi [1]: 7.72
pKi [2]: 7.51
pKi [3]: 7.80
pKi [4]: 7.72

CN(Cc1ccccc1)c1nn2c(-c3ccccc3)nnc2c2ccccc12
pKi [1]: < 6.00
pKi [2]: 6.62
pKi [3]: < 6.00
pKi [4]: 6.30

O=C1c2ccccc2C(=O)N1CCn1c(=O)c2ccccc2c(=O)n1Cc1ccccc1
pKi [1]: 5.85
pKi [2]: 5.32
pKi [3]: 5.74

Cc1ccnc(COc2nn3c(-c4ccccc4)nnc3c3ccccc23)c1
pKi [1]: 8.00
pKi [2]: 8.43
pKi [3]: 7.96
pKi [4]: 7.74

COc1ccc(-c2nnc3c4ccccc4c(=O)n(Cc4ccccc4)n23)cc1
pKi [1]: < 6.00
pKi [2]: < 6.00
pKi [3]: < 6.00
pKi [4]: < 6.00
